Assay results from patent publication US10273279B2, “Protease activated receptor-1 (PAR1) derived cytoprotective polypeptides and related methods” (THE SCRIPPS RESEARCH INSTITUTE, priority 2011, dated 2019).
Changes are numbered by the printed parent chain. Entries after “also recorded” stand apart in the source; their conditions may differ.

What was measured:
Experiment in all cases: SEAP-PAR1 cleavage reporter on transfected HEK-293 cells (SEAP release)
SEAP-PAR1 [1] = format: cell-based, human; details: in the absence of EPCR
Source text: (§1) To facilitate analysis of APC-mediated PAR-1 activation, we created a full-length PAR-1 construct linked at the N-terminus to an alkaline phosphatase reporter group (SEAP). Selection of stable cell lines expressing both endothelial protein C receptor (EPCR) (wt or E86A) and SEAP-PAR1 allowed for a reliable and reproducible analysis of EPCR-dependent PAR-1 activation by APC. Mass-spec analysis of cleavage fragments generated by APC of a synthetic PAR-1 N-terminal tail peptide (TR33-62) identified both Arg^41 and Arg^46 as potential cleavage sites for APC proteolysis, as noted above. […] R41Q-SEAP-PAR1 was cleaved by APC in the presence of EPCR. This surprising result was also obtained for R41A-SEAP PAR1.
(§2) 2009; 113:5970-5978. SEAP-PAR1, either in the presence or absence of wt-EPCR, were transfected into HEK-293 cells to obtain stable cells expressing SEAP-PAR1 or wt-EPCR/SEAP-PAR1. Mutations in SEAP-PAR1 were introduced using the Quickchange method (Agilent). Cells were grown in 96-wells plates to confluency in Dulbeco's modified Eagle media (DMEM): Ham's F-12 (Invitrogen) supplemented with penicillin-streptomycin-glutamine (PSG) (Gibco) and 10% fetal bovine serum (Omega) in a humidified atmosphere at 37° C. and 5% CO2 Cells were washed with Hank's balanced salt solution (HBSS; Invitrogen) supplemented with 1.3 mM CaCl2, 0.6 mM MgCl2 and 0.1% endotoxin free BSA (Calbiochem) and incubated with APC. After 60 min, SEAP release was determined using 1-step PNPP (Pierce). Values were corrected for background activity derived from the same cells incubated in the absence of APC and expressed as a percentage of total SEAP available on the cell membrane.

SEAP-PAR1 [2] = molecular target: T1, SEAP-PAR1 (Homo sapiens, UniProt P25116, R41Q/R46Q); format: cell-based; details: cells with wt-EPCR
T1 construct: we created a full-length PAR-1 construct linked at the N-terminus to an alkaline phosphatase reporter group (SEAP); expressed in transfected cells
T1 sequence (P25116 22-425 R41Q/R46Q): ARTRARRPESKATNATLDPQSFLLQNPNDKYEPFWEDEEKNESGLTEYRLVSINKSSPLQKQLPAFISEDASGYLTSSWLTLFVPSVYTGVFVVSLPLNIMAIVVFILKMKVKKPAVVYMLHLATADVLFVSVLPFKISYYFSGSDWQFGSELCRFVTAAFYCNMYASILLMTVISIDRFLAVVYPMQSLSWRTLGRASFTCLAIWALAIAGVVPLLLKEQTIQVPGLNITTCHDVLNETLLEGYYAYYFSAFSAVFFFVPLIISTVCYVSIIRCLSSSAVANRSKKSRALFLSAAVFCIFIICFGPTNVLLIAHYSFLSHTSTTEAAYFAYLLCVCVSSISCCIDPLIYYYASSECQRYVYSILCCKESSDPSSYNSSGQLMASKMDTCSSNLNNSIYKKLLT
Source text: as §1, §2

SEAP-PAR1 [3] = molecular target: T2, SEAP-PAR1 (Homo sapiens, UniProt P25116, R46Q); format: cell-based; details: cells with wt-EPCR
T2 construct: we created a full-length PAR-1 construct linked at the N-terminus to an alkaline phosphatase reporter group (SEAP); expressed in transfected cells
T2 sequence (P25116 22-425 R46Q): T1 sequence (P25116 22-425 R41Q/R46Q) with Q20R
Source text: as §1, §2

SEAP-PAR1 [4] = molecular target: T3, SEAP-PAR1 (Homo sapiens, UniProt P25116, R41A); format: cell-based; details: in the absence of EPCR
T3 construct: we created a full-length PAR-1 construct linked at the N-terminus to an alkaline phosphatase reporter group (SEAP); expressed in transfected cells
T3 sequence (P25116 22-425 R41A): T1 sequence (P25116 22-425 R41Q/R46Q) with Q20A, Q25R
Source text: as §1, §2

SEAP-PAR1 [5] = molecular target: T4, SEAP-PAR1 (Homo sapiens, UniProt P25116, R41Q); format: cell-based; details: in the presence of EPCR
T4 construct: we created a full-length PAR-1 construct linked at the N-terminus to an alkaline phosphatase reporter group (SEAP); expressed in transfected cells
T4 sequence (P25116 22-425 R41Q): T1 sequence (P25116 22-425 R41Q/R46Q) with Q25R
Source text: as §1, §2

Row | cleavage of R46Q-SEAP-PAR1 (SEAP-PAR1 [3]) | cleavage of R41A-SEAP-PAR1 (SEAP-PAR1 [4]) | cleavage of R41Q-SEAP-PAR1 (SEAP-PAR1 [5]) | Substance | cleavage of wt-SEAP-PAR1 and R46Q-SEAP-PAR1 (SEAP-PAR1 [1]) | cleavage of R41Q/R46Q-SEAP-PAR1 (SEAP-PAR1 [2])
1 | did not eliminate PAR1 cleavage | did not cleave |  | APC: Activated Protein C, serine protease with anticoagulant and cytoprotective cell signaling activities | did cleave | eliminated PAR-1 cleavage; also recorded: negligible
2 | efficient cleavage |  | did not show any cleavage | thrombin |  | 
